The supplement of paper PMC5412046
Structures can show the parent of a compound that is named as a salt.

Test system: SB.mhdgc-1
Test: area under the dose-response curve of % viability (trapezoidal, 11 doses) (% viability x log10 concentration); higher = less cytotoxic
Conditions: SB.mhdgc-1 (hereditary c.1380delA CDH1 gastric cancer)
Outline: (§1)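 A pintool delivered 23 nL of compound in DMSO to 1536-well plates holding 500 hereditary or sporadic patient-derived gastric cancer cells in 5 μL medium per well, at 11 concentrations in threefold steps. Following 48 h of exposure, cells were treated with CellTiter-Glo for 30 min at room temperature, and plates were read for luminescence on a ViewLux. The reported measure is viability normalised to DMSO, either at the top concentration or as trapezoidal area under the curve.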

| SMILES | area under the dose-response curve |
| --- | --- |
| c1coc(CNc2ncnc3nc[nH]c23)c1 [Kinetin] (top concentration 46.0829 µM) | 616 |
| OCCC#Cc1nc(-c2ccc(F)cc2)c(-c2ccncc2)n1CCCc1ccccc1 (top concentration 46.0829 µM) | 501 |
| O=C(/C=C/c1ccc(O)cc1)c1ccc(O)cc1O [Isoliquiritigenin] (top concentration 46.0829 µM) | 620 |
| CC1(C)CC(O)CC(C)(C)N1[O] [Tempol] (top concentration 46.0829 µM) | 574 |
| CN(C)c1ccc2nc3ccc(N(C)C)cc3[s+]c2c1 [Methylene blue] (top concentration 46.0829 µM) | 384 |
| NC/1=N/C(=O)N(/C=N1)[C@@H]2O[C@H](CO)[C@@H](O)[C@H]2O [5-Azacitidine] (top concentration 46.0829 µM) | 501 |
| COc1ccc2[nH]c([S+]([O-])Cc3ncc(C)c(OC)c3C)nc2c1 (configuration not stated) [Omeprazole] (top concentration 46.0829 µM) | 437 |
| O=C(Nc1cccnc1)N1CCC(Cc2cccc(Oc3ccc(C(F)(F)F)cn3)c2)CC1 [PF-3845] (top concentration 46.0829 µM) | 470 |
| O=C(/C=C/c1c(C(=O)[O-])[nH]c2cc(Cl)cc(Cl)c12)Nc1ccccc1 [Gavestinel sodium] (top concentration 46.0829 µM) | 518 |
| COc1ccc2c(c1)CC[C@@H](CN(C)CC(=O)O)[C@H]2c1ccccc1 (top concentration 46.0829 µM) | 459 |
| CC1=C(CC(=O)O)c2cc(F)ccc2/C1=C\c1ccc([S+](C)[O-])cc1 (configuration not stated) [Sulindac] (top concentration 46.0829 µM) | 472 |
| CN1CCCC(CC1)N2\N=C(CC3=CC=C(Cl)C=C3)/C4=C(C=CC=C4)C2=O (configuration not stated) [Azelastine hydrochloride] (top concentration 46.0829 µM) | 407 |
| N#Cc1c(N(CC(=O)[O-])CC(=O)[O-])sc(C(=O)[O-])c1CC(=O)[O-].O.O.O.O.O.O.O.[Sr+2].[Sr+2] [Ranelic acid distrontium salt] (top concentration 46.0829 µM) | 565 |
| C[C@H](NC(=O)C(=O)Nc1ccccc1C(C)(C)C)C(=O)N[C@@H](CC(=O)O)C(=O)COc1c(F)c(F)cc(F)c1F [Emricasan] (top concentration 46.0829 µM) | 537 |
| CCN1CCN(C(=O)Cc2ccc(Nc3ncc(F)c(Nc4ccc(C(=O)Nc5ccccc5Cl)cc4)n3)cc2)CC1 [Aurora A Inhibitor I] (top concentration 46.0829 µM) | 396 |
| CCC(CCCC)COC(=O)C(\C#N)=C(\c1ccccc1)c2ccccc2 (configuration not stated) [Octocrylene] (top concentration 46.0829 µM) | 453 |
| OC(=O)\C1=C\N(C2=CC=C(F)C=C2)C3=C(C=C(F)C(=C3)N4CCNCC4)C1=O [Sarafloxacin hydrochloride] (top concentration 46.0829 µM) | 498 |
| NC1CCC(Nc2nc(Nc3ccc(C(=O)N4CCCCC4)cc3)c3ncn(-c4cccc(F)c4)c3n2)CC1 (configuration not stated) [Purfalcamine] (top concentration 46.0829 µM) | 624 |

| SMILES | area under the dose-response curve |
| --- | --- |
| Cc1c(NC(=O)OC[C@@H]2COCCN2)cn2ncnc(Nc3ccc4c(cnn4Cc4cccc(F)c4)c3)c12 [AC-480] (top concentration 46.0829 µM) | 279 |
| O=C1[O][Pt]2([NH]C3CCCCC3[NH]2)[O]C1=O (configuration not stated) [Oxaliplatin] (top concentration 46.0829 µM) | 451 |
| CCC(C)SSc1ncc[nH]1 (configuration not stated) [PX-12] (top concentration 46.0829 µM) | 449 |
| CCN1\C=C(C(O)=O)/C(=O)C2=C1C(=C(N3CCNC(C)C3)C(=C2)F)F (configuration not stated) [Lomefloxacin hydrochloride] (top concentration 46.0829 µM) | 517 |
| C#Cc1cccc(Nc2ncnc3cc(OCCOC)c(OCCOC)cc23)c1 [Erlotinib hydrochloride] (top concentration 46.0829 µM) | 379 |
| COC(=O)[C@H](c1ccccc1Cl)N1CCc2sccc2C1 [Clopidogrel bisulfate] (top concentration 46.0829 µM) | 478 |
| CCc1ccc(CCOc2ccc(CC3SC(=O)NC3=O)cc2)nc1 (configuration not stated) [Pioglitazone HCl] (top concentration 46.0829 µM) | 579 |
| C1COC(NC(C2CC2)C2CC2)=N1 [Rilmenidine] (top concentration 46.0829 µM) | 460 |
| NC(=O)[C@@H](CCC(F)(F)F)N(Cc1ccc(-c2ncon2)cc1F)[S+](=O)([O-])c1ccc(Cl)cc1 [Avagacestat] (top concentration 46.0829 µM) | 491 |
| OC(CN1CCC(Cc2ccc(F)cc2)CC1)c1ccc(Cl)cc1 (configuration not stated) [Eliprodil] (top concentration 46.0829 µM) | 431 |
| Cc1cc(Nc2ncc3c(n2)N(C)C(=O)N(c2cc(NC(=O)c4cccc(C(F)(F)F)c4)ccc2C)C3)n(C)n1 [Pluripotin] (top concentration 46.0829 µM) | 429 |
| Cc1nc(C(=O)NCC(=O)O)c(O)c2ccc(Oc3ccccc3)cc12 [FG-4592] (top concentration 46.0829 µM) | 513 |
| CNCC(O)c1ccc(O)cc1 (configuration not stated) [Synephrine] (top concentration 46.0829 µM) | 542 |
| CNC(=O)c1cc(Oc2ccc(NC(=O)Nc3ccc(Cl)c(C(F)(F)F)c3)cc2)ccn1 [Sorafenib] (top concentration 46.0829 µM) | 494 |
| c1ccc2c(Oc3nc(Nc4ccc(N5CCOCC5)cc4)c4ncn(C5CCCCC5)c4n3)cccc2c1 [purmorphamine] (top concentration 46.0829 µM) | 460 |
| CCCC(CCC)C(=O)[O-] [Valproic acid sodium salt] (top concentration 46.0829 µM) | 425 |
| C[C@]12CCC(=O)C=C1CC[C@@H]1[C@@H]2CC[C@@]2(C)[C@H]1CC[C@]2(C)O [Methyltestosterone] (top concentration 92.1659 µM) | 523 |
| ClC1=CC=C(C=C1)C(C#N)C2=C(Cl)C=C(C=C2Cl)N3\N=C/C(=O)NC3=O (configuration not stated) [Diclazuril] (top concentration 46.0829 µM) | 538 |

Test system: SB.msgc-1
Test: as above
Conditions: SB.msgc-1 (sporadic gastric cancer)
Outline: as §1

| SMILES | area under the dose-response curve |
| --- | --- |
| c1coc(CNc2ncnc3nc[nH]c23)c1 [Kinetin] (top concentration 46.0829 µM) | 525 |
| OCCC#Cc1nc(-c2ccc(F)cc2)c(-c2ccncc2)n1CCCc1ccccc1 (top concentration 46.0829 µM) | 457 |
| O=C(/C=C/c1ccc(O)cc1)c1ccc(O)cc1O [Isoliquiritigenin] (top concentration 46.0829 µM) | 534 |
| CC1(C)CC(O)CC(C)(C)N1[O] [Tempol] (top concentration 46.0829 µM) | 516 |
| CN(C)c1ccc2nc3ccc(N(C)C)cc3[s+]c2c1 [Methylene blue] (top concentration 46.0829 µM) | 402 |
| NC/1=N/C(=O)N(/C=N1)[C@@H]2O[C@H](CO)[C@@H](O)[C@H]2O [5-Azacitidine] (top concentration 46.0829 µM) | 392 |
| COc1ccc2[nH]c([S+]([O-])Cc3ncc(C)c(OC)c3C)nc2c1 (configuration not stated) [Omeprazole] (top concentration 46.0829 µM) | 283 |
| O=C(Nc1cccnc1)N1CCC(Cc2cccc(Oc3ccc(C(F)(F)F)cn3)c2)CC1 [PF-3845] (top concentration 46.0829 µM) | 534 |
| O=C(/C=C/c1c(C(=O)[O-])[nH]c2cc(Cl)cc(Cl)c12)Nc1ccccc1 [Gavestinel sodium] (top concentration 46.0829 µM) | 518 |
| COc1ccc2c(c1)CC[C@@H](CN(C)CC(=O)O)[C@H]2c1ccccc1 (top concentration 46.0829 µM) | 474 |
| CC1=C(CC(=O)O)c2cc(F)ccc2/C1=C\c1ccc([S+](C)[O-])cc1 (configuration not stated) [Sulindac] (top concentration 46.0829 µM) | 452 |
| CN1CCCC(CC1)N2\N=C(CC3=CC=C(Cl)C=C3)/C4=C(C=CC=C4)C2=O (configuration not stated) [Azelastine hydrochloride] (top concentration 46.0829 µM) | 358 |
| N#Cc1c(N(CC(=O)[O-])CC(=O)[O-])sc(C(=O)[O-])c1CC(=O)[O-].O.O.O.O.O.O.O.[Sr+2].[Sr+2] [Ranelic acid distrontium salt] (top concentration 46.0829 µM) | 504 |
| C[C@H](NC(=O)C(=O)Nc1ccccc1C(C)(C)C)C(=O)N[C@@H](CC(=O)O)C(=O)COc1c(F)c(F)cc(F)c1F [Emricasan] (top concentration 46.0829 µM) | 574 |
| CCN1CCN(C(=O)Cc2ccc(Nc3ncc(F)c(Nc4ccc(C(=O)Nc5ccccc5Cl)cc4)n3)cc2)CC1 [Aurora A Inhibitor I] (top concentration 46.0829 µM) | 470 |
| CCC(CCCC)COC(=O)C(\C#N)=C(\c1ccccc1)c2ccccc2 (configuration not stated) [Octocrylene] (top concentration 46.0829 µM) | 436 |
| OC(=O)\C1=C\N(C2=CC=C(F)C=C2)C3=C(C=C(F)C(=C3)N4CCNCC4)C1=O [Sarafloxacin hydrochloride] (top concentration 46.0829 µM) | 616 |
| NC1CCC(Nc2nc(Nc3ccc(C(=O)N4CCCCC4)cc3)c3ncn(-c4cccc(F)c4)c3n2)CC1 (configuration not stated) [Purfalcamine] (top concentration 46.0829 µM) | 547 |

| SMILES | area under the dose-response curve |
| --- | --- |
| Cc1c(NC(=O)OC[C@@H]2COCCN2)cn2ncnc(Nc3ccc4c(cnn4Cc4cccc(F)c4)c3)c12 [AC-480] (top concentration 46.0829 µM) | 279 |
| O=C1[O][Pt]2([NH]C3CCCCC3[NH]2)[O]C1=O (configuration not stated) [Oxaliplatin] (top concentration 46.0829 µM) | 463 |
| CCC(C)SSc1ncc[nH]1 (configuration not stated) [PX-12] (top concentration 46.0829 µM) | 486 |
| CCN1\C=C(C(O)=O)/C(=O)C2=C1C(=C(N3CCNC(C)C3)C(=C2)F)F (configuration not stated) [Lomefloxacin hydrochloride] (top concentration 46.0829 µM) | 515 |
| C#Cc1cccc(Nc2ncnc3cc(OCCOC)c(OCCOC)cc23)c1 [Erlotinib hydrochloride] (top concentration 46.0829 µM) | 388 |
| COC(=O)[C@H](c1ccccc1Cl)N1CCc2sccc2C1 [Clopidogrel bisulfate] (top concentration 46.0829 µM) | 542 |
| CCc1ccc(CCOc2ccc(CC3SC(=O)NC3=O)cc2)nc1 (configuration not stated) [Pioglitazone HCl] (top concentration 46.0829 µM) | 506 |
| C1COC(NC(C2CC2)C2CC2)=N1 [Rilmenidine] (top concentration 46.0829 µM) | 490 |
| NC(=O)[C@@H](CCC(F)(F)F)N(Cc1ccc(-c2ncon2)cc1F)[S+](=O)([O-])c1ccc(Cl)cc1 [Avagacestat] (top concentration 46.0829 µM) | 487 |
| OC(CN1CCC(Cc2ccc(F)cc2)CC1)c1ccc(Cl)cc1 (configuration not stated) [Eliprodil] (top concentration 46.0829 µM) | 505 |
| Cc1cc(Nc2ncc3c(n2)N(C)C(=O)N(c2cc(NC(=O)c4cccc(C(F)(F)F)c4)ccc2C)C3)n(C)n1 [Pluripotin] (top concentration 46.0829 µM) | 438 |
| Cc1nc(C(=O)NCC(=O)O)c(O)c2ccc(Oc3ccccc3)cc12 [FG-4592] (top concentration 46.0829 µM) | 580 |
| CNCC(O)c1ccc(O)cc1 (configuration not stated) [Synephrine] (top concentration 46.0829 µM) | 560 |
| CNC(=O)c1cc(Oc2ccc(NC(=O)Nc3ccc(Cl)c(C(F)(F)F)c3)cc2)ccn1 [Sorafenib] (top concentration 46.0829 µM) | 444 |
| c1ccc2c(Oc3nc(Nc4ccc(N5CCOCC5)cc4)c4ncn(C5CCCCC5)c4n3)cccc2c1 [purmorphamine] (top concentration 46.0829 µM) | 475 |
| CCCC(CCC)C(=O)[O-] [Valproic acid sodium salt] (top concentration 46.0829 µM) | 505 |
| C[C@]12CCC(=O)C=C1CC[C@@H]1[C@@H]2CC[C@@]2(C)[C@H]1CC[C@]2(C)O [Methyltestosterone] (top concentration 92.1659 µM) | 515 |
| ClC1=CC=C(C=C1)C(C#N)C2=C(Cl)C=C(C=C2Cl)N3\N=C/C(=O)NC3=O (configuration not stated) [Diclazuril] (top concentration 46.0829 µM) | 511 |
